Earlier results as cited in patent publication US6469069B1, “Propofol composition containing sulfite” (Gensia Sicor Pharmaceuticals, Inc., priority 1998, dated 2002).

Tested on: likely microbial contaminants
Settings: 1% Diprivan (Zeneca) 0.1% Na2S2O5

O=S([O-])S(=O)(=O)[O-].[Na+].[Na+] [sodium metabisulfite, Sodium metabisulfite]
Preservative effect in propofol emulsion (in words): completely ineffectual
